Experiments:
Type in all cases: in vivo
tomato = tomato root development (seeds, cuttings)
Procedure: FIG. 9: Effect of purified HYTLO1 application on tomato plant and root development. Tomato roots (left) and tomato cuttings (right) were dipped in a HYTLO1 solution of 0.018 μM.
In order to investigate the effect of HYTLO1 on the development of plants, either at the level of seed germination, germling formation and survival, root formation, stem elongation and thickness, foliar development, as well as general plant size, various experiments were performed with the purified protein. […] The protein clearly stimulated rhizogenesis on different plants. […] Experiments on plants were performed in vivo by watering and spraying tomato plants with a HYTLO1 0.01 μM solution as described in the legend of FIG. 10. In these experiments, the effect of HYTLO1 was also compared with that of the commercial biocontrol strain T. harzianum T22 (applied as spore suspension according the typical application rate of commercial products) and that of the germinating hormone 1-naphthaleneacetic acid (GERMON E—produced by L. Gobbi, Italy) (applied at the typical application rate of commercial products). Applications were made once per week for one month by watering the tomato plants. Results, expressed in terms of plant height and length, root length and weight, number of leaves, stem diameter and weight, are combined and shown in FIG. 10 and FIG. 11.

Arabidopsis thaliana = test: growth of Arabidopsis; settings: 0.01 μM drench every two days for one month
Procedure: FIG. 12: Effect of purified HYTLO1 on the growth of Arabidopsis (A), percentage seed germination of cucumber (B) and plantlet development of Lotus japonicus (C). A: Arabidopsis thaliana (Columbia-0: Col-0) seeds were sown in Levington's F2 compost plus sand (JFC Munro, Devon; http://www.jfcmonro.com) and chilled for 2 days at 4° C. Plants were grown under short-day conditions (10 h light) in a controlled environment chamber, at 22° C. during the day and 18° C. at night with 60% relative humidity for 5-6 weeks before transplanting. Ten ml of sterile solutions of HYTLO1 were drenched every two days at concentrations 0.072 μg/ml (0.01 μM) for one month in each pot containing 100 ml of soil and 1 Arabidopsis plant. Untreated plants were used as controls. B: Sterile cucumber seeds were placed on magenta box containing half-strength Murashige and Skoog salt (MS) medium (ICN Biomedicals) containing 1% agar and 1.5% sucrose, adjusted to pH 5.7, and vernalized for 2 days at 4° C. in the absence of light. A sterile solutions of HYTLO1 was added to the substrate at final concentration of 10^−8 M before the solidification of agar. C: The same concentration of HYTLO1 was used in the agarized medium used for the L. japonicus test. […]

Lotus japonicus = test: Rhizobium lotii on Lotus japonicus in vitro system, plant growth and nodule density; settings: HYTLO1 0.07 μM, 6PP 0.002 μM, 4 weeks after seeding
Procedure: Wt+Rhz=treatment with R. loti, Wt-Rhz without R. loti. (D) Growth measured after 4 weeks, in the absence (cont) or presence of Rhizoba R. loti ((+) Rhiz). The purified molecules were added to the sterile MS media and poured into Petri dishes. Data were recorded 4 weeks after seeding of L. japonicus.
FIG. 18. […] (HYT=HYTLO1 at 0.07 μM, 6PP at 0.002 μM, HA=Harzianic Acid at 0.001 μM). Wt=control with R. loti without metabolites. The purified molecules were added to the sterile MS media and poured into Petri dishes. Average number of nodules per cm of root are indicated. Data were recorded 4 weeks after seeding of L. japonicus.
In order to test the effect of HYTLO1, as well as of the secondary metabolites HA and 6PP on the growth promotion activity of Rhizobia, such as Rhizobium sp., on legumimosae plants, we used a standard Rhizobium lotii on Lotus japonicus in vitro system (Barbulova et al., 2005, Functional Plant Biology, 32:529-536). Plant growth and nodule density on the roots were scored four weeks after seeding by comparing untreated controls and the various treatments.

HYTLO1: about 7 KDa Type II hydrophobin protein from Trichoderma longibrachiatum strain MK1, 71 aa, SEQ ID NO: 1
concentration promoting root growth and development (tomato; assays on cuttings): ≥ 0.31 µM
de novo root formation on tomato cuttings (tomato; cuttings dipped in 0.075 and 0.018 μM, after 15 days, no roots in controls): formed de novo roots
root apparatus of plantlets vs untreated control (tomato; tomato seeds germinated with HYTLO1 10^−6 to 10^−9 M, data not shown): more than double
growth promotion effect (Arabidopsis thaliana): confirmed
plant growth promotion effect of Rhizobia on Lotus japonicus (Lotus japonicus; HA 0.001 μM in MS media): enhances the plant growth promotion effect of Rhizobia
nodule formation (number of nodules per cm of root) (Lotus japonicus; HA 0.001 μM, with R. loti): Enhancement of nodule formation

— patent US10875898B2, “Bioactive protein, use thereof and method for its production” (Koppert B.V., priority 2014, dated 2020)
